18 compounds from patent US20240059695A1, “SUBSTITUTED IMIDAZO[1,5-b]PYRIDAZINE COMPOUNDS AS KINASE INHIBITORS AND USE THEREOF” (IMPACT THERAPEUTICS (SHANGHAI), INC, priority 2020, published 2024) can be followed below.

Series [1] concerns human lung cancer NCI-H460 cell. Description: MTT proliferation assay, NCI-H460. In kind it is cell-based. The note with it: NCI-H460, 96 h, MTT, 4 days, read-out: IC50 (nM), proliferation of NCI-H460 cell. The procedure:
The cells were digested by trypsinase and centrifuged at 800 rpm for 5 minutes, the supernatant was discarded, and the residual was resuspended with fresh medium […]) and counted.
(§1) The cells were seeded into 96-well cell culture plate with a density of 2000/4000 cells per well and incubated overnight in a 5% CO2 incubator at 37° C. […] 5 μL diluent of each concentration was added to 120 μL of medium (25 times diluted) and mixed by shaking. The overnight cell plates were taken and the culture medium was removed, 195 μL of fresh medium was added to each well, and 5 μL of diluted medium containing the corresponding concentration of the test compound was added respectively (the final concentration of DMSO is 1%), and the culture plate was then placed in a 5% CO2 incubator at 37° C. for 4 days. After removing the original solution, 100 μL of fresh serum-free DMEM medium containing MTT (0.5 mg/mL) was added to each well, the culture was continued. […] Cell viability (%)=(ODcompound−ODbackground)/(ODDMSO−ODbackground)×100. GraphPad Prism 6.0 was used to analyze the data. The inhibitory activity of compounds on cell proliferation was plotted based on cell viability and the logarithm of compound concentration. The IC50 value was fitted by a sigmoidal dose response curve equation Y−100/(1+10^(LogC−LogIC50)), wherein C was the concentration of compound.
(Tetrazolium dyes change colour on reduction, which living cells bring about.)

Series [2] has as its system human colon cancer LoVo cell. Description: MTT proliferation assay, LoVo. In kind it is cell-based. The note with it: MTT, 4 days, read-out: IC50 (nM), proliferation of LoVo cell. The procedure: as §1, with “[…]” for “100 μL”, “viability (%)=(ODcompound−ODbackground)/ODDMSO−ODbackground)×100.” for “viability (%)=(ODcompound−ODbackground)/(ODDMSO−ODbackground)×100.”, “The IC5.0” for “The IC50”, “equation Y=100/(1+10^(LogC-LogIC50)),” for “equation Y−100/(1+10^(LogC−LogIC50)),”

The target of series [3] is T1, ATR/ATRIP enzyme (Homo sapiens, UniProt Q13535).
T1 construct: purchased Eurofins 14-953
Nature of the series: ATR enzyme activity experiment (HTRF). The note with it: p53 substrate, 30 min room temperature, read-out: IC50 (nM), inhibitory effect on ATR kinase activity. In kind it is biochemical. The procedure:
The mixture was centrifuged at 1000 rpm for 1 minute, and reacted at room temperature protected from light for 30 minutes. Then 5 μL of EDTA stop solution (250 mM) was added to stop the reaction.
In general terms: Time-resolved FRET reads energy transfer from a long-lived donor to a nearby acceptor.

Series [4] in a line: Pharmacokinetics following single oral administration to mice. In kind it is in vivo. The following applies: mouse, CD-1 (ICR) mice, gavage 10 mg/kg, 0.5% methylcellulose/water suspension, plasma. The procedure: The compound of the present invention was formulated into a 0.5% methylcellulose/water uniform suspension, and was administered to CD-1 (ICR) mice by gavage at 10 mg/kg. Plasma samples were collected at 8 time points of 0.250, 0.500, 1.00, 2.00, 4.00, 6.00, 8.00 and 24.0 hours post-dose. Concentrations of the compound were determined by LC-MS/MS method.

Read-outs that look alike come from different tables or passages of the source.

T1 sequence (Q13535 whole entry): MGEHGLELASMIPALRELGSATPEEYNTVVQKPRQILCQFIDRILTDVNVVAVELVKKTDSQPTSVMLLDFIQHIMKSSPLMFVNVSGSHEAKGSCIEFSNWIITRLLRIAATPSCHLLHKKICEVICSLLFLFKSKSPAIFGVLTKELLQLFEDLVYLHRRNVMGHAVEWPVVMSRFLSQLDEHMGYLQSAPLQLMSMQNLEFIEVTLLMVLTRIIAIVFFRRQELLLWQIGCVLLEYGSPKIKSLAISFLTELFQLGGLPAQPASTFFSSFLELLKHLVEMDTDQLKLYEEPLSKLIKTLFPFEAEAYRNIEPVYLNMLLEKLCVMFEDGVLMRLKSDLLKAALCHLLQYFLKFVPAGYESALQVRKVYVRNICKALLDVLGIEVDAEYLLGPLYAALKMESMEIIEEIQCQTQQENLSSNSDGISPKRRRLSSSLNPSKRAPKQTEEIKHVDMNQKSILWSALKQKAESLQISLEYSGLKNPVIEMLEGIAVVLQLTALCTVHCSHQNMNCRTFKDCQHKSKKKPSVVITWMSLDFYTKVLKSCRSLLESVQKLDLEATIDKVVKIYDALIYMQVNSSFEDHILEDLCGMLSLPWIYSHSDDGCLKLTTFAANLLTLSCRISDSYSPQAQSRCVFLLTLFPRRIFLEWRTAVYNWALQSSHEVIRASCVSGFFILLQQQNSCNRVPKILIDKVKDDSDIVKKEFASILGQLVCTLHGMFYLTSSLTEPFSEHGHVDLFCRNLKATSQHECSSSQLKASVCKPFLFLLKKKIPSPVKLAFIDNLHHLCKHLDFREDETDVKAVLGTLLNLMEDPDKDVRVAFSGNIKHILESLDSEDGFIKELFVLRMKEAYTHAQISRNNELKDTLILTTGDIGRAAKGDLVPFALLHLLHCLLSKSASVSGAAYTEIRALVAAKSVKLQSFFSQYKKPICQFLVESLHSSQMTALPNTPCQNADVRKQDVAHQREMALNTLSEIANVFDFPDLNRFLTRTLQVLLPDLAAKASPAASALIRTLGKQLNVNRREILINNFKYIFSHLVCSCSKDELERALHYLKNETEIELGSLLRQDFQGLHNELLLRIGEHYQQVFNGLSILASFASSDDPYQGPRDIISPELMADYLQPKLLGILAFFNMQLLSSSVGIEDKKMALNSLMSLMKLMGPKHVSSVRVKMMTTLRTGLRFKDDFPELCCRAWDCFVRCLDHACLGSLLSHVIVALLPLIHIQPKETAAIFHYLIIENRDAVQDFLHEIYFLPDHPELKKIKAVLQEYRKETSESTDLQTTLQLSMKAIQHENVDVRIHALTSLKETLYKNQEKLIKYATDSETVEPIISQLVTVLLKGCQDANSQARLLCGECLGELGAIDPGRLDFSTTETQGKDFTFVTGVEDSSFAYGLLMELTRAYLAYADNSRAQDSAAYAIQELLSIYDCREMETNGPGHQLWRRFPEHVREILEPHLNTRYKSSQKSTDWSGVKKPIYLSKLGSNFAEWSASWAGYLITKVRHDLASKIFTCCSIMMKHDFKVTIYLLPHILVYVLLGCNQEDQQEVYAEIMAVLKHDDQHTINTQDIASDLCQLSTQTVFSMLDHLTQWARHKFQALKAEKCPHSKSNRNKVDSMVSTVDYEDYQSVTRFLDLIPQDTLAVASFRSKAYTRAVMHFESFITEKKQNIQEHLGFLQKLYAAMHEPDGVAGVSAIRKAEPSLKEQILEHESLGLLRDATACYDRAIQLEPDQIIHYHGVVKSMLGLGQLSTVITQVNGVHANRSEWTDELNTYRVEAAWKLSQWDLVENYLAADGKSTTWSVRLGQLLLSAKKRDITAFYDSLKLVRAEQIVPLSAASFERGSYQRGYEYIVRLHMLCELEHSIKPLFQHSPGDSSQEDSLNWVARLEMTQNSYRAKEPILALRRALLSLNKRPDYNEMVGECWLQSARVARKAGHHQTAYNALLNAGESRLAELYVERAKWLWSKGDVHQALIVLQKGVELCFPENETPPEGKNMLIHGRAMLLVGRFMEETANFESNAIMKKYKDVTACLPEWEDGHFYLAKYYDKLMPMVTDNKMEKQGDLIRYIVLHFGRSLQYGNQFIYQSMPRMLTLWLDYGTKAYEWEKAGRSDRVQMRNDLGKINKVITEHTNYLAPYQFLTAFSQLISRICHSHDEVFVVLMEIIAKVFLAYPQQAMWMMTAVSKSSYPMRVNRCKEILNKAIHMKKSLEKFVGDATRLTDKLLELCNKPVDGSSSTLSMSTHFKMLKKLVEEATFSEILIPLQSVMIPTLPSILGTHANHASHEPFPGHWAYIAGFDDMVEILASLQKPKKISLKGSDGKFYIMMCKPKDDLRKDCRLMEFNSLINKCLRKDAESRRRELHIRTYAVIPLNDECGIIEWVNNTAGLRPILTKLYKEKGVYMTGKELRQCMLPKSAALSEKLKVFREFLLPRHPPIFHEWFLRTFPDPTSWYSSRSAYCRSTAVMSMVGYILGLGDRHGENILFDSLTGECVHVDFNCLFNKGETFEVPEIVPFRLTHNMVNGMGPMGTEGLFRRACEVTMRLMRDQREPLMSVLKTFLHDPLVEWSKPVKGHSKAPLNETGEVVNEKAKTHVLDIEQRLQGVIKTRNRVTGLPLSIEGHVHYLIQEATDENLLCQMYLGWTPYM
T1 sequence (Q8WXE1 whole entry partner): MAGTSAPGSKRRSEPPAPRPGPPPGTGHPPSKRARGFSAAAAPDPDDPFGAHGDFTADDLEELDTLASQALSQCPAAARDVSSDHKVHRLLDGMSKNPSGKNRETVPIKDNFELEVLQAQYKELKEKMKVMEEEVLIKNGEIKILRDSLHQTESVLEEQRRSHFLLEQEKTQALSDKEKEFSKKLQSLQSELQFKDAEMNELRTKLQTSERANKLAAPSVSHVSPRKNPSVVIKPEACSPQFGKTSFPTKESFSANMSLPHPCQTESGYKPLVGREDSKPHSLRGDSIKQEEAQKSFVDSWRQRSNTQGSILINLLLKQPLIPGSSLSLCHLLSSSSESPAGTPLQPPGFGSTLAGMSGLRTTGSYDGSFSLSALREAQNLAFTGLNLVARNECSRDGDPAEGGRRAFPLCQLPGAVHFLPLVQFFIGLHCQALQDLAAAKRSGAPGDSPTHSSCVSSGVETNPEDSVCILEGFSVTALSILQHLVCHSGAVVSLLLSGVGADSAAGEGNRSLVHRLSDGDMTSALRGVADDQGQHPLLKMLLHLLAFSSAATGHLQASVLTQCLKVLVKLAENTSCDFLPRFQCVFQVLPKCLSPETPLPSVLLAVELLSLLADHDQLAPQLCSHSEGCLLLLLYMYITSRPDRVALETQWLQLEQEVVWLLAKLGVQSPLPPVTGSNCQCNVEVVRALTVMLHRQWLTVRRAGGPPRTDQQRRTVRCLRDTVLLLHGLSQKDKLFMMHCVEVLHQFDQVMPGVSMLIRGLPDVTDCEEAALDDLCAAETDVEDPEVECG

As to `CCn1nccc1-c1cc(N2CCOC[C@H]2C)nn2c(-c3ccn[nH]3)nc(C)c12` [Example 2, (R)-4-(4-(1-ethyl-1H-pyrazol-5-yl)-5-methyl-7-(1H-pyrazol-5-yl)imidazo[1,5-b]pyridazin-2-yl)-3-methylmorpholine], the IC50 in series [1] was found to be 21.9 nM; in series [2] (Homo sapiens, LoVo, 96 h), 43.6 nM; in series [3], 3 nM.

Turning to `Cc1ccccc1-c1cc(N2CCOC[C@H]2C)nn2c(-c3ccn[nH]3)nc(C)c12` [Example 3, (R)-3-methyl-4-(5-methyl-7-(1H-pyrazol-5-yl)-4-(o-tolyl)imidazo[1,5-b]pyridazin-2-yl)morpholine], the IC50 is 27.3 nM in series [1]; 49.5 nM in series [2] (Homo sapiens, LoVo, 96 h); 2 nM in series [3].

Turning to `Cc1ncccc1-c1cc(N2CCOC[C@H]2C)nn2c(-c3ccn[nH]3)nc(C)c12` [Example 4, (R)-3-methyl-4-(5-methyl-4-(2-methylpyridin-3-yl)-7-(1H-pyrazol-5-yl)imidazo[1,5-b]pyridazin-2-yl)morpholine], in series [4], the AUC(0-inf) was found to be 44000 ng·h/mL, the AUC(0-t) is 43400 ng·h/mL, the Cmax came to 9010 ng/mL and the half-life was 3.2 h. Also, the IC50 in series [1] stood at 13 nM. Moreover, the IC50 in series [2] (Homo sapiens, LoVo, 96 h) amounted to 26.9 nM. Besides, in series [3], the IC50 worked out at 3 nM.

In the case of `Cc1nc(-c2ccn[nH]2)n2nc(N3CCOC[C@H]3C)cc(-c3cccnc3C(F)(F)F)c12` [Example 5, (R)-3-methyl-4-(5-methyl-7-(1H-pyrazol-5-yl)-4-(2-(trifluoromethyl)pyridin-3-yl)imidazo[1,5-b]pyridazin-2-yl)morpholine], in series [4], the AUC(0-inf) is 31700 ng·h/mL, the AUC(0-t) turned out to be 30800 ng·h/mL, the Cmax turned out to be 8930 ng/mL and the half-life was 3.42 h. Besides, the IC50 in series [1] stood at 17.8 nM. Further, the IC50 in series [2] (Homo sapiens, LoVo, 96 h) was 25.5 nM. Also, the IC50 in series [3] worked out at 3 nM.

Turning to `Cc1nc(-c2ccn[nH]2)n2nc(N3CCOC[C@H]3C)cc(-c3cccc(C#N)c3)c12` [Example 6, (R)-3-(5-methyl-2-(3-methylmorpholino)-7-(1H-pyrazol-5-yl)imidazol, [1,5-b]pyridazin-4-yl)benzonitrile], the IC50 in series [1] came to 21.8 nM; in series [2] (Homo sapiens, LoVo, 96 h), 44.1 nM; in series [3], 5 nM.

For `Cc1nc(-c2ccn[nH]2)n2nc(N3CCOC[C@H]3C)cc(C3CCOCC3)c12` [Example 7, (R)-3-methyl-4-(5-methyl-7-(1H-pyrazol-5-yl)-4-(tetrahydro-2H-pyran-4-yl)imidazol[1,5-b]pyridazin-2-yl)morpholine], the IC50 in series [1] was 15.7 nM; in series [2] (Homo sapiens, LoVo, 96 h) it was 24.6 nM; in series [3] it was 1 nM.

On to `Cc1cc(-c2nc(C)c3c(-c4ccnn4C)cc(N4CCOC[C@H]4C)nn23)[nH]n1` [Example 8, (R)-3-methyl-4-(5-methyl-4-(1-methyl-1H-pyrazol-5-yl)-7-(3-methyl-1H-pyrazol-5-yl)imidazo[1,5-b]pyridazin-2-yl)morpholine], for which the IC50 amounted to 14.9 nM in series [1]; 17.9 nM in series [2] (Homo sapiens, LoVo, 96 h); 4 nM in series [3].

Turning to `Cc1nc(-c2ccn[nH]2)n2nc(N3CCOC[C@H]3C)cc(-c3ccnn3C(C)C)c12` [Example 9, (R)-4-(4-(1-isopropyl-1H-pyrazol-5-yl)-5-methyl-7-(1H-pyrazol-5-yl)imidazo[1,5-b]pyridazin-2-yl)-3-methylmorpholine], the IC50 in series [1] was found to be 30.2 nM; in series [2] (Homo sapiens, LoVo, 96 h), 39.3 nM; in series [3], 3 nM.

Consider `Cc1nc(-c2ccn[nH]2)n2nc(N3CCOC[C@H]3C)cc(-c3ccn(C(F)F)n3)c12` [Example 10, (R)-4-(4-(1-(difluoromethyl)-1H-pyrazol-3-yl)-5-methyl-7-(1H-pyrazol-5-yl)imidazo[1,5-b]pyridazin-2-yl)-3-methylmorpholine], for which the IC50 in series [1] amounted to 97.3 nM; in series [2] (Homo sapiens, LoVo, 96 h), 116 nM; in series [3], 217 nM.

Regarding `Cc1cnn(C)c1-c1cc(N2CCOC[C@H]2C)nn2c(-c3ccn[nH]3)nc(C)c12` [Example 11, (R)-4-(4-(1,4-dimethyl-1H-pyrazol-5-yl)-5-methyl-7-(1H-pyrazol-5-yl)imidazo[1,5-b]pyridazin-2-yl)-3-methylmorpholine], the IC50 is 30.1 nM in series [1] and 2 nM in series [3].

Regarding `Cc1nc(-c2ccn[nH]2)n2nc(N3CCOC[C@H]3C)cc(-c3cnn(C)c3C)c12` [Example 12, (R)-4-(4-(1,5-dimethyl-1H-pyrazol-4-yl)-5-methyl-7-(1H-pyrazol-5-yl)imidazo[1,5-b]pyridazin-2-yl)-3-methylmorpholine], the IC50 was 28 nM in series [1]; 19.6 nM in series [2] (Homo sapiens, LoVo, 96 h); 1 nM in series [3].

Take `Cc1nn(C)cc1-c1cc(N2CCOC[C@H]2C)nn2c(-c3ccn[nH]3)nc(C)c12` [Example 13, (R)-4-(4-(1,3-dimethyl-1H-pyrazol-4-yl)-5-methyl-7-(1H-pyrazol-5-yl)imidazo[1,5-b]pyridazin-2-yl)-3-methylmorpholine]: the IC50 in series [1] was found to be 33.2 nM; in series [2] (Homo sapiens, LoVo, 96 h), 46.5 nM; in series [3] it was 14 nM.

Consider `Cc1cc(S(C)(=O)=O)ccc1-c1cc(N2CCOC[C@H]2C)nn2c(-c3ccn[nH]3)nc(C)c12` [Example 15, (R)-3-methyl-4-(5-methyl-4-(2-methyl-4-(methylsulfonyl)phenyl)-7-(1H-pyrazol-5-yl)imidazo[1,5-b]pyridazin-2-34)morpholine], for which the IC50 in series [1] is 12.5 nM; in series [2] (Homo sapiens, LoVo, 96 h), 19.5 nM; in series [3], 6 nM.

Regarding `Cc1nc(-c2ccn[nH]2)n2nc(N3CCOC[C@H]3C)cc(-c3cccnc3F)c12` [Example 16, (R)-4-(4-(2-fluoropyridin-3-yl)-5-methyl-7-(1H-pyrazol-5-yl)imidazo[1,5-b]pyridazin-2-yl)-3-methylmorpholine], the IC50 in series [1] was 12.5 nM; in series [2] (Homo sapiens, LoVo, 96 h), 17.6 nM; in series [3] it was 9 nM.

Consider `Cc1ccc(-c2cc(N3CCOC[C@H]3C)nn3c(-c4ccn[nH]4)nc(C)c23)cn1` [Example 17, (R)-3-methyl-4-(5-methyl-4-(6-methylpyridin-3yl)-7-(1H-pyrazol-5-yl)imidazo[1,5-b]pyridazin-2-yl)morpholine], for which the IC50 in series [1] is 45.8 nM; in series [2] (Homo sapiens, LoVo, 96 h), 49.1 nM; in series [3] it was 18 nM.

`Cc1nc(-c2ccn[nH]2)n2nc(N3CCOC[C@H]3C)cc(-c3ccncc3F)c12` [Example 18, (R)-4-(4-(3-fluoropyridin-4-yl)-5-methyl-7-(1H-pyrazol-5-yl)imidazo[1,5-b]pyridazin-2-yl)-3-methylmorpholine]: the IC50 worked out at 28 nM in series [1]; 41.8 nM in series [2] (Homo sapiens, LoVo, 96 h); 47.2 nM in series [2]; 10 nM in series [3].

Take `C[C@@H]1COCCN1c1cc(-c2ccnn2C)c2c(F)nc(-c3ccn[nH]3)n2n1` [Example 20, (R)-4-(5-fluoro-4-(1-methyl-1H-pyrazol-5-yl)-7-(1H-pyrazol-5-yl)imidazo[1,5-b]pyridazin-2-yl)-3-methylmorpholine]: the IC50 in series [1] was found to be 89.9 nM; in series [2] (Homo sapiens, LoVo, 96 h), 79.1 nM; in series [3], 41 nM.

Regarding `C[C@@H]1COCCN1c1nc(-c2ccnn2C)c2cnc(-c3cc[nH]n3)n2n1` [Example 27, (R)-3-methyl-4-(4-(1-methyl-1H-pyrazol-5-yl)-7-(1H-pyrazol-3-yl)imidazo[5,1-f][1,2,4]triazin-2-yl)morpholine], the IC50 was determined as 68.3 nM in series [1] and 110 nM in series [2] (Homo sapiens, LoVo, 96 h).

What is called AUC(0-inf) is the area under the concentration-time curve extrapolated to infinity. By AUC(0-t) is commonly meant exposure summed from dosing to a finite time, without extrapolation to infinity. A low value points to low exposure. For orientation: Cmax means the highest concentration seen after dosing. What is called half-life is the time needed for the level to fall by half in the phase considered. Low readings indicate fast loss, high ones slow loss.
